In patent US20230241232A1, “Size-Dependent Brain and Lymphatic Distribution of Macromolecular Drug Delivery Platform” (The United States of America, As Represented by the …, priority 2020, published 2023):

Target: T1, scavenger receptor A (Mus musculus, UniProt P30204)
T1 construct: endogenous in cells; host or cells: Raw 264.7 macrophages
T1 sequence (P30204 1-458): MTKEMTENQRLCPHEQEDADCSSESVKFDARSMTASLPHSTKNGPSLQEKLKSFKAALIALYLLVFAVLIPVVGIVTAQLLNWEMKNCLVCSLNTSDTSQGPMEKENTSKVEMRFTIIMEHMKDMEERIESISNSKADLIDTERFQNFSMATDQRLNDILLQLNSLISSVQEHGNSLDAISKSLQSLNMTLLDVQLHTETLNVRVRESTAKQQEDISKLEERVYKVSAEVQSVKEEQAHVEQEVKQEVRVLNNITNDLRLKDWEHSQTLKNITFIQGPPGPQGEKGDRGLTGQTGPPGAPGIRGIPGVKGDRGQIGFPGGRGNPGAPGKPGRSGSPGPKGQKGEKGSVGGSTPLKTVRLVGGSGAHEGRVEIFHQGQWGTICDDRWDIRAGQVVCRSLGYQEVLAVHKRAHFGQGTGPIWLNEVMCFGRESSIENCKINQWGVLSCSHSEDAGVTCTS
Assay: Competitive inhibition of polymer-488 cell uptake by poly I / poly C in Raw 264.7 macrophages
Format: cell-based
Settings: for inhibition of polymer-488 fluorescence (% control): Raw 264.7 cells, various inhibitor concentrations, polymer-488 constant, 37° C. 3 hours, FIG. 4; for inhibition of scavenger receptor interaction of polymer-488 (fluorescence): Raw 264.7 macrophages, various concentrations of polymer-488, with or without inhibitor, FIG. 3
Description: The fluorescently labelled poly(L-lysine succinylated) was also tested for cell uptake in a macrophage cell line Raw 264.7 in the presence of competitive inhibitors and relevant controls. […] At higher concentrations of polymer-488, fluorescence is seen due to competing off the poly I.
In a follow up study, cells were treated with various concentrations of either poly I or poly C while polymer-488 concentration remained constant. In this study, Raw 264.7 cells were incubated overnight at 400,000 cells/mL. The cells were then treated with various concentrations of polymer-488 and either 200 μg/mL poly I, 200 μg/mL poly C, or no inhibitor. The cells were incubated at 37° C. for 3 hours, washed 3 times with media, and fluorescence measured.

inhibition of polymer-488 fluorescence (% control) | Substance | inhibition of scavenger receptor interaction of polymer-488 (fluorescence)
virtually no inhibition of fluorescence | polycytidylic acid [poly C] | not with poly C
dose-dependent inhibition | polyinosinic acid [poly I] | inhibition of scavenger receptor interaction
